Measured values from patent US20260325519A1, “METHOD AND PHARMACEUTICAL COMPOSITION FOR USE IN THE TREATMENT OF FOCAL CORTICAL DYSPLASIA” (priority 2023, published 2026).

Tests used:
[1] = test system: neocortical acute slices from rats with FCDII; assay: Spontaneous recurrent epileptiform discharges (LFP) in acute neocortical slices from adult FCD rats; format: cell-based, rat (Wistar); settings: 5 μM gabazine
Method: Our study takes advantage of a rat model of FCD developed in our laboratory (Pelorosso et al 2019) by in utero electroporation of a gain of function mutation of mTOR (MTOR c.6644C>T p.S2215F), that has been found in different FCD patients (Baldassari et al 2019). Rats were housed in cages with ad libitum food/water, controlled temperature (21-23 °C) and 12:12 h light-dark cycle (light period from 8 A.M. to 8 P.M.).
Plasmid electroporations were performed with either wild type (WT) or mutant mTOR expression vectors (pCAG-MTOR WT-IRES-GFP or pCAG-MTOR p.S2215F, respectively, 3.0 μg/μL each), or with non-recombinant vector (pCAG-IRES-GFP; 0.5 μg/μL). All constructs were generated by Genscript (Piscataway, NJ) as described before (Pelorosso et al 2019) and were checked by Sanger sequencing.
Timed pregnant Wistar rats (Janvier Labs, Le Genest-Saint-Isle, France) received buprenorphine at 0.03 mg/kg and were anesthetized with sevoflurane (4%) 30 min later. […]
Prior to recordings, rat or human acute slices were transferred in oxygenated normal cerebrospinal fluid (ACSF) at room temperature (>1 hour). […] Spontaneous recurrent epileptiform discharges were recorded as local field potentials as previously described (Peret et al., 2014). […]

[2] = test system: acute cortical slices from a patient with FCD; assay: Recurrent epileptiform discharges (LFP) in human acute slice from surgically resected FCD; format: cell-based; settings: 5 μM UBP 310, 50 μM 4-AP and 5 μM gabazine
Method: Cortical slices from patients with drug-resistant epilepsy Acute and cultured slices at 350 μm thickness were prepared from surgical cortical resections from patient diagnosed with drug-resistant epilepsy (AP-HM, Hôpital de La Timone, Marseille, France; CHU Pellegrin, Bordeaux, France) as previously described (Le Duigou et al., 2018). At DIV 1, a subset of cultured slices were transduced with AAV9 with antigrik2 miRNA applied directly to slices (4E+10 per slice).
Prior to recordings, rat or human acute slices were transferred in oxygenated normal cerebrospinal fluid (ACSF) at room temperature (>1 hour). The ACSF contained (in mM, Sigma-Aldrich): 126 NaCl, 3.5 KCl, 1.2NaH2PO4, 26 NaHCO3, 1.3 MgCl2, 2.0 CaCl2 , and 10 glucose (pH 7.4). For electrophysiological recordings, cortical slices were individually transferred to a recording chamber maintained at 30-32 °C and continuously perfused (2-3 ml/min) with oxygenated (95% O2 and 5% CO2) ACSF containing either 5 μM gabazine, or 5 μM gabazine and 50 μM 4-AP in rats and human tissues, respectively. Spontaneous recurrent epileptiform discharges were recorded as local field potentials as previously described (Peret et al., 2014).
All statistical analyses were performed using Prism 6 (Graphpad). Normality of the data distributions was systematically tested using a Shapiro-Wilk test. […]

[3] = test system: acute cortical slices from a patient with FCD; assay: Field EPSP (fEPSP) evoked by electrical stimulation in human acute slice from surgically resected FCD; format: cell-based; settings: 5 μM UBP 310
[4] = acute cortical slices from a patient with FCD
[5] = human acute slice from resected FCD, in words

Cc1cn(C[C@H](N)C(=O)O)c(=O)n(Cc2ccsc2C(=O)O)c1=O [UBP 310]
reduction in the number of epileptiform discharges ([1]; 5 μM UBP 310, bath application, acute neocortical slice from adult FCD rat, n=7 slices from 4 FCD rats, Wilcoxon p=0.0156): around 46%
reduction in the frequency of spontaneous recurrent epileptiform discharges ([1]; 5 μM UBP 310, neocortical acute slices from rats with FCDII): around 46%
reduction of the frequency of spontaneous recurrent epileptiform discharges [2, 4]: around 70%
reduction of the number of epileptiform discharges [2, 5]: strong reduction
reduction of the amplitude of evoked field EPSP (fEPSP) [3, 4]: approximately 50%
fEPSP evoked by electrical stimulation [3, 5]: strongly reduced
